Results taken from ChEMBL document CHEMBL1154712, “Synthesis and cytotoxic activity of psorospermin and acronycine analogues in the 3-propyloxy-acridin-9(10H)-one and -benzo[b]acridin-125H-one series” (Eur J Med Chem, 2010).

Tests used:
L1210 = experiment: Cytotoxicity against mouse L1210 cells after 48 hrs by microculture tetrazolium assay; type: functional, cell-based; conditions: L1210, 48 h
[1] = Cytotoxicity against human KB3-1 cells after 96 hrs by microculture tetrazolium assay; type: functional, cell-based; conditions: KB 3-1, 96 h

SMILES | IC50 (L1210) [µM] | IC50 [1] [µM]
COc1cc(OCC2CO2)cc2c1c(=O)c1cc3ccccc3cc1n2C (racemic) | 0.03 | 0.2
COc1cc(OCC(O)CO)cc2c1c(=O)c1ccccc1n2C (racemic) | 59.8 | 47.5
COc1cc(OCC(O)COC(C)=O)cc2c1c(=O)c1ccccc1n2C (racemic) | 32.4 | 22.5
COc1cc(OCC2COC(=O)O2)cc2c1c(=O)c1cc3ccccc3cc1n2C (racemic) | 18.8 | 23.2
COc1cc(OCC2CO2)cc2c1c(=O)c1ccccc1n2C (racemic) | 0.09 | 0.12
COc1cc2c(c3c1c(=O)c1ccccc1n3C)C[C@H]([C@@]1(C)CO1)O2 (racemic) | – | 0.06
COc1cc2c(c3c1c(=O)c1cc4ccccc4cc1n3C)C[C@H]([C@@]1(C)CO1)O2 (racemic) | 0.04 | 0.08
COc1cc(OCC2COC(=O)O2)cc2c1c(=O)c1ccccc1n2C (racemic) | 37.2 | 24.1
C=CCOc1cc(OC)c2c(=O)c3cc4ccccc4cc3n(C)c2c1 | 33 | 3.7
COc1cc(OCC(COC(C)=O)OC(C)=O)cc2c1c(=O)c1cc3ccccc3cc1n2C (racemic) | 3.1 | 7.9
COc1cc2c(c3c1c(=O)c1cc4ccccc4cc1n3C)[C@@H](OC(C)=O)[C@@H](OC(C)=O)C(C)(C)O2 (relative stereo) | – | 0.09
COc1cc(OCC(O)CO)cc2c1c(=O)c1cc3ccccc3cc1n2C (racemic) | 79 | 65
C=CCOc1cc(OC)c2c(=O)c3ccccc3n(C)c2c1 | 13.4 | 10.4
COc1cc(OCC(COC(C)=O)OC(C)=O)cc2c1c(=O)c1ccccc1n2C (racemic) | 40.6 | 37.8
COc1cc(OCC(O)COC(C)=O)cc2c1c(=O)c1cc3ccccc3cc1n2C (racemic) | 6.2 | 5.8
